Test results published in patent US8198311B2, “Modulators of glucocorticoid receptor, AP-1, and/or NF-κB activity and use thereof” (Bristol-Myers Squibb Company, priority 2006, dated 2012).
Where two headings read alike, the source gives them in different places.

Columns and labels:
[1] = biological target: T1, human full-length glucocorticoid receptor (Homo sapiens, UniProt P04150); assay: Glucocorticoid Receptor Binding Assay (II), fluorescence polarization competitor kit (Fluormone GS1); conditions: cell lysate with recombinant human full-length GR
T1 construct: recombinantly expressed human full-length glucocorticoid receptor; purchased PanVera Co., Madison, Wis; P2816
T1 sequence (P04150 1-777): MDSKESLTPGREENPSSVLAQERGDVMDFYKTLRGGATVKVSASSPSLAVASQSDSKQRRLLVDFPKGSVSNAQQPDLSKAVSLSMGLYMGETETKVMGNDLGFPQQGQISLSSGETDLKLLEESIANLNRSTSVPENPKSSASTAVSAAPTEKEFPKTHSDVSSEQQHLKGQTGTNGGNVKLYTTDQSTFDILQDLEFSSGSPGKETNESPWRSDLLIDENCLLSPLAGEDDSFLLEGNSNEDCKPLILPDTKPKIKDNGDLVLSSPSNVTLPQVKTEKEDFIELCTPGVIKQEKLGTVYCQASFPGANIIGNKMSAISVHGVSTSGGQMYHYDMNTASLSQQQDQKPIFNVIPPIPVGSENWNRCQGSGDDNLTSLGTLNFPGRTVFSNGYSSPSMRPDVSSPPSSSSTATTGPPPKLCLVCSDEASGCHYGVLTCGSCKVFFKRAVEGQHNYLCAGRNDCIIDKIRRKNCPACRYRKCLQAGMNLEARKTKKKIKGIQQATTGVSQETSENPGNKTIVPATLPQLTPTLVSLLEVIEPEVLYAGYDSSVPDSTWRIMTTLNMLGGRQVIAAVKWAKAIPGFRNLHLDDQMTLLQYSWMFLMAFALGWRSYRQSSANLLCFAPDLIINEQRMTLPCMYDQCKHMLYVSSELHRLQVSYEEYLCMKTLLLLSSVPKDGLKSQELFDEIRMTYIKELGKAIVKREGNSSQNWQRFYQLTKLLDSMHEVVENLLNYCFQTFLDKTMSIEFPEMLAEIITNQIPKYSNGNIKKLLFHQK
Experimental: In order to measure the binding of compounds on the glucocorticoid receptor a commercially available kit was used (Glucocorticoid receptor competitor assay kit, PanVera Co., Madison, Wis., P2816). Briefly, a cell lysate containing recombinantly expressed human full-length glucocorticoid receptor was mixed with a fluorescently labeled glucocorticoid (1 nM Fluormone GS1) in the presence or absence of test compound. After one hour at room temperature, the fluorescence polarization (FP) of the samples were measured. […] Test molecules were analyzed in the concentration range from 2.4 nM to 40 microMolar.

[2] = test system: AP-1 induced transcriptional activity; assay: Cellular Transrepressional Assay (AP-1 luciferase reporter in A549 cells, PMA-activated); assay type: cell-based; conditions: pAP-1-Luc, 10 ng/ml PMA, read-out: AP-1 (EC50, nM) (Cellular Transrepression Assay)
In short: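 A549 cells stably carrying a 7×AP-1-luciferase reporter, stimulated with 10 ng/ml PMA with or without compound (0.1 nM-40 μM) for 7 h. Luciferase luminescence read 10 min after reagent addition; repression is percentage decrease of PMA-alone signal, EC50 by curve fitting.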

Row | SMILES | Ki [1] [nM] | EC50 ([2]; Homo sapiens, A549, 7 h) [nM] | EC50 ([2]; 7 hours) [nM]
1 | CC(C)(CNC(=O)C(=O)O)[C@H](c1ccccc1)c1ccc2c(cnn2-c2ccc(F)cc2)c1 [Example 24, (R)-2-(3-(1-(4-fluorophenyl)-1H-indazol-5-yl)-2,2-dimethyl-3-phenylpropylamino)-2-oxoacetic acid] | 351 | > 10000 | 
2 | Cn1ncc2cc([C@H](c3ccccc3)C(C)(C)CNS(=O)(=O)CC(F)(F)F)ccc21 [Example 85, (S)—N-(2,2-Dimethyl-3-(1-methyl-1H-indazol-5-yl)-3-phenylpropyl)-2,2,2-trifluoroethanesulfonamide] | 2890 | > 10000 | 
3 | CCCS(=O)(=O)NCC(C)(C)[C@@H](c1ccccc1)c1ccc2c(cnn2-c2ccc(F)cc2)c1 [Example 13, (S)-N-(3-(1-(4-fluorophenyl)-1H-indazol-5-yl)-2,2-dimethyl-3-phenylpropyl)propane-1-sulfonamide] | 19 | 181 | 
4 | CC(C)(CNC(=O)Cc1cccs1)[C@H](c1ccccc1)c1ccc2c(cnn2-c2ccc(F)cc2)c1 [Example 21, (R)-N-(3-(1-(4-fluorophenyl)-1H-indazol-5-yl)-2,2-dimethyl-3-phenylpropyl)-2-(thiophen-2-yl)acetamide] | 39 | 266 | 
5 | CC(C)(CNS(=O)(=O)CC(F)(F)F)[C@@H](c1ccccc1)c1ccc2[nH]ncc2c1 [(S)-83, (S)-N-(3-(1H-indazol-5-yl)-2,2-dimethyl-3-phenylpropyl)-2,2,2-trifluoroethanesulfonamide] | 34 | > 10000 | 
6 | CC(C)CC(c1ccc2c(cnn2-c2ccc(F)cc2)c1)C(C)(C)CNC(=O)CC(F)(F)F (stereo not drawn) [Example 59A, 3,3,3-trifluoro-N-(3-(1-(4-fluorophenyl)-1H-indazol-5-yl)-2,2,5-trimethylhexyl)propanamide] | 6.9 | 57 | 
7 | CC(C)(CNC(=O)CC(F)(F)F)[C@@H](c1ccccc1)c1ccc2[nH]ncc2c1 [(S)-82, (S)-N-(3-(1H-indazol-5-yl)-2,2-dimethyl-3-phenylpropyl)-3,3,3-trifluoropropanamide] | 39 | > 10000 | 
8 | CC(C)(CNC(=O)CC(F)(F)F)[C@H](c1ccccc1)c1ccc2c(cnn2-c2ccc(F)cc2)c1 [(R)-17, (R)-3,3,3-trifluoro-N-(3-(1-(4-fluorophenyl)-1H-indazol-5-yl)-2,2-dimethyl-3-phenylpropyl)-propanamide] | 12 | 99 | 
9 | CC(C)(CNS(C)(=O)=O)[C@@H](c1ccccc1)c1ccc2c(cnn2-c2ccc(F)cc2)c1 [Example 6, (S)-N-(3-(1-(4-fluorophenyl)-1H-indazol-5-yl)-2,2-dimethyl-3-phenylpropyl)methanesulfonamide] | 4.9 | 47 | 
10 | CC(C)CC(c1ccc2c(cnn2-c2ccc(F)cc2)c1)C(C)(C)CNC(=O)CC(F)(F)F (single isomer, unassigned) [Example 59B, 3,3,3-trifluoro-N-(3-(1-(4-fluorophenyl)-1H-indazol-5-yl)-2,2,5-trimethylhexyl)propanamide] | 9.3 | > 10000 | 
11 | CC(C)CC(c1ccc2c(cnn2-c2ccc(F)cc2)c1)C(C)(C)CNS(=O)(=O)CC(F)(F)F (single isomer, unassigned) [Example 57B, 2,2,2-trifluoro-N-(3-(1-(4-fluorophenyl)-1H-indazol-5-yl)-2,2,5-trimethylhexyl)-ethanesulfonamide] | 15 |  | > 10000
12 | CC(C)n1ncc2cc([C@H](c3ccccc3)C(C)(C)CNS(=O)(=O)CC(F)(F)F)ccc21 [Example 87, (S)—N-(2,2-Dimethyl-3-(1-isopropyl-1H-indazol-5-yl)-3-phenylpropyl)-2,2,2-trifluoroethanesulfonamide] | 33 | > 10000 | 
13 | CC(C)(CNC(=O)CC(F)(F)F)[C@H](c1ccccc1)c1ccc2[nH]ncc2c1 [(R)-82, (R)-N-(3-(1H-indazol-5-yl)-2,2-dimethyl-3-phenylpropyl)-3,3,3-trifluoropropanamide] | 628 | > 10000 | 
14 | CC(C)CC(c1ccc2c(cnn2-c2ccc(F)cc2)c1)C(C)(C)CNC(=O)NC(C)(C)CN1CCOCC1 (stereo not drawn) [Example 33, 1-(3-(1-(4-fluorophenyl)-1H-indazol-5-yl)-2,2,5-trimethylhexyl)-3-(2-methyl-1-morpholinopropan-2-yl)urea] | 74 | > 10000 | 
15 | CC(C)n1ncc2cc([C@H](c3ccccc3)C(C)(C)CNC(=O)CC(F)(F)F)ccc21 [Example 86, (S)—N-(2,2-Dimethyl-3-(1-isopropyl-1H-indazol-5-yl)-3-phenylpropyl)-3,3,3-trifluoropropanamide] | 13 | > 10000 | 
16 | CC(C)(CNC(=O)C1(C(F)(F)F)CC1)[C@@H](c1ccccc1)c1ccc2c(cnn2-c2ccc(F)cc2)c1 [Example 10, (S)-N-(3-(1-(4-fluorophenyl)-1H-indazol-5-yl)-2,2-dimethyl-3-phenylpropyl)-1-(trifluoromethyl)cyclopropanecarboxamide] | 19 | 143 | 
17 | O=C(CC(F)(F)F)NCC1CC1(c1ccccc1)c1ccc2c(cnn2-c2ccc(F)cc2)c1 (stereo not drawn) [Example 88, 3,3,3-Trifluoro-N-((2-(1-(4-fluorophenyl)-1H-indazol-5-yl)-2-phenylcyclopropyl)methyl)propanamide] | 86 | > 10000 | 
18 | CC(C)(CNC(=O)C(F)(F)C(F)(F)F)[C@@H](c1ccccc1)c1ccc2c(cnn2-c2ccc(F)cc2)c1 [Example 19, (S)-2,2,3,3,3-pentafluoro-N-(3-(1-(4-fluorophenyl)-1H-indazol-5-yl)-2,2-dimethyl-3-phenylpropyl)propanamide] | 11 | > 10000 | 

Next, values leading:

Row | Ki [1] [nM] | EC50 ([2]; Homo sapiens, A549, 7 h) [nM] | EC50 ([2]; 7 hours) [nM] | SMILES
19 | 252 | > 10000 |  | CC(C)(C(c1ccccc1)c1ccc2c(cnn2-c2ccc(F)cc2)c1)C(O)(c1cccs1)C(F)(F)F (stereo not drawn) [Example 130, 1,1,1-Trifluoro-4-(1-(4-fluorophenyl)-1H-indazol-5-yl)-3,3-dimethyl-4-phenyl-2-(thiophen-2-yl)butan-2-ol]
20 | 12 | > 10000 |  | CC(C)(C(=O)C1CC1)C(c1ccccc1)c1ccc2c(cnn2-c2ccc(F)cc2)c1 (stereo not drawn) [Example 126]
21 | 33 | > 10000 |  | CC(C)(CNC(=O)C(F)(F)F)C(c1ccccc1)c1ccc2c(cnn2C2CCCCCC2)c1 (stereo not drawn) [Example 114, N-(3-(1-Cycloheptyl-1H-indazol-5-yl)-2,2-dimethyl-3-phenylpropyl)-2,2,2-trifluoroacetamide]
22 | 9.2 | 43 |  | CC(C)(CNc1nncs1)C(c1ccccc1)c1ccc2c(cnn2-c2ccc(F)cc2)c1 (stereo not drawn) [Example 109, N-(3-(1-(4-Fluorophenyl)-1H-indazol-5-yl)-2,2-dimethyl-3-phenylpropyl)-1,3,4-thiadiazol-2-amine]
23 | 11 | 95 |  | O=C(NCCC(c1ccccc1)c1ccc2c(cnn2-c2ccc(F)cc2)c1)C(F)(F)F (stereo not drawn) [Example 112, 2,2,2-Trifluoro-N-(3-(1-(4-fluorophenyl)-1H-indazol-5-yl)-3-phenylpropyl)acetamide]
24 | 20 | > 10000 |  | CC(C)(C(=O)C(F)(F)F)C(c1ccccc1)c1ccc2c(cnn2-c2ccc(F)cc2)c1 (stereo not drawn) [Example 131, 1,1,1-Trifluoro-4-(1-(4-fluorophenyl)-1H-indazol-5-yl)-3,3-dimethyl-4-phenylbutan-2-one]
25 | 28 | > 10000 |  | CC(C)(COC(=O)NCC(F)(F)F)C(c1ccccc1)c1ccc2c(cnn2-c2ccc(F)cc2)c1 (stereo not drawn) [Example 132, 3-(1-(4-Fluorophenyl)-1H-indazol-5-yl)-2,2-dimethyl-3-phenylpropyl 2,2,2-trifluoroethylcarbamate]
26 | 16 | > 10000 |  | CC(C)(C(c1ccccc1)c1ccc2c(cnn2-c2ccc(F)cc2)c1)C(C)(O)C(F)(F)F (mixture of isomers) [Example 128, 1,1,1-Trifluoro-4-(1-(4-fluorophenyl)-1H-indazol-5-yl)-2,3,3-trimethyl-4-phenylbutan-2-ol]
27 | 71 | > 10000 |  | CC(C)(C(O)c1cccs1)C(c1ccccc1)c1ccc2c(cnn2-c2ccc(F)cc2)c1 (stereo not drawn) [Example 123, 3-(1-(4-fluorophenyl)-1H-indazol-5-yl)-2,2-dimethyl-3-phenyl-1-(thiophen-2-yl)propan-1-ol]
